Laboratory results from ChEMBL document CHEMBL1201862, “PubChem BioAssay data set” (2004).
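The compound was tested at five concentrations on cells cultured in 96-well plates, with a 48-hour exposure period. GI50: concentration for 50% inhibition of growth.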 Activity calls are given as the source filed them. Rule as the data show it: active = GI50 up to about 1.1 µM and inactive = higher.

Key:
Assay in all cases: NCI anticancer screen, dose series, 48 h
K562 = tested on: K562
NCI/ADR-RES = tested on: NCI/ADR-RES
DU-145 = tested on: DU-145
HOP-62 = tested on: HOP-62
A498 = tested on: A498
RPMI-8226 = tested on: RPMI-8226
OVCAR-4 = tested on: OVCAR-4
HCT-15 = tested on: HCT-15
MCF7 = tested on: MCF7
MDA-MB-231 = tested on: MDA-MB-231
MDA-MB-435 = tested on: MDA-MB-435
BT-549 = tested on: BT-549
CAKI-1 = tested on: CAKI-1
TK-10 = tested on: TK-10
UO-31 = tested on: UO-31
SF-295 = tested on: SF-295
HCC 2998 = tested on: HCC 2998
OVCAR-5 = tested on: OVCAR-5
HOP-92 = tested on: HOP-92

O=C1Nc2cccc(C(F)(F)F)c2/C1=N/Nc1ccccc1[N+](=O)[O-]
GI50 (K562): 17 µM (inactive)
GI50 (NCI/ADR-RES): 30.8 µM (inactive)
GI50 (DU-145): 33 µM (inactive)
GI50 (HOP-62): 25.1 µM (inactive)
GI50 (A498): 0.836 µM (active)
GI50 (RPMI-8226): 11.4 µM (inactive)
GI50 (OVCAR-4): 16.9 µM (inactive)
GI50 (HCT-15): 34.4 µM
GI50 (MCF7): 14.4 µM (inactive)
GI50 (MDA-MB-231): 28.4 µM (inactive)
GI50 (MDA-MB-435): 18.7 µM (inactive)
GI50 (BT-549): > 100 µM (inactive)
GI50 (CAKI-1): > 100 µM (inactive)
GI50 (TK-10): 14.8 µM (inactive)
GI50 (UO-31): 33.9 µM (inactive)
GI50 (SF-295): 16.4 µM (inactive)
GI50 (HCC 2998): 28.7 µM (inactive)
GI50 (OVCAR-5): 86.5 µM (inactive)

c1ccc(-c2cnc3nc4ccccc4nc3n2)cc1
GI50 (K562): 2.51 µM (inactive)
GI50 (NCI/ADR-RES): 3.81 µM (inactive)
GI50 (DU-145): 3.83 µM (inactive)
GI50 (HOP-62): 13.9 µM (inactive)
GI50 (A498): 3.33 µM (inactive)
GI50 (RPMI-8226): 1.32 µM (inactive)
GI50 (OVCAR-4): 1.72 µM (inactive)
GI50 (HCT-15): 2.5 µM
GI50 (MCF7): 1.82 µM (inactive)
GI50 (MDA-MB-231): 2.69 µM (inactive)
GI50 (MDA-MB-435): 1.58 µM (inactive)
GI50 (BT-549): 3.43 µM (inactive)
GI50 (CAKI-1): 0.942 µM (active)
GI50 (TK-10): 4.2 µM (inactive)
GI50 (UO-31): 4.58 µM (inactive)
GI50 (SF-295): 6.11 µM (inactive)
GI50 (HCC 2998): 11.7 µM (inactive)
GI50 (OVCAR-5): 13.6 µM (inactive)

COC(=O)c1c(O)ccc2c1c1c(n2CCc2ccccc2)C(=O)c2ccccc2C1
GI50 (K562): 37.6 µM (inactive)
GI50 (NCI/ADR-RES): 19.7 µM (inactive)
GI50 (DU-145): 31.8 µM (inactive)
GI50 (HOP-62): 21.2 µM (inactive)
GI50 (A498): 19.2 µM (inactive)
GI50 (RPMI-8226): 11.7 µM (inactive)
GI50 (OVCAR-4): 10.7 µM (inactive)
GI50 (HCT-15): 19.7 µM
GI50 (MCF7): 14.2 µM (inactive)
GI50 (MDA-MB-231): 19.5 µM (inactive)
GI50 (MDA-MB-435): 18.2 µM (inactive)
GI50 (BT-549): 24.4 µM (inactive)
GI50 (CAKI-1): 17.2 µM (inactive)
GI50 (TK-10): 34.3 µM (inactive)
GI50 (UO-31): 20.7 µM (inactive)
GI50 (HOP-92): 10.9 µM (inactive)

c1ccc(-c2ccc(/N=N/N3CCCC3)cc2)cc1
GI50 (K562): > 100 µM (inactive)
GI50 (NCI/ADR-RES): > 100 µM (inactive)
GI50 (DU-145): > 100 µM (inactive)
GI50 (HOP-62): > 100 µM (inactive)
GI50 (A498): > 100 µM (inactive)
GI50 (RPMI-8226): 22.8 µM (inactive)
GI50 (OVCAR-4): > 100 µM (inactive)
GI50 (HCT-15): > 100 µM
GI50 (MCF7): > 100 µM (inactive)
GI50 (MDA-MB-231): > 100 µM (inactive)
GI50 (MDA-MB-435): > 100 µM (inactive)
GI50 (BT-549): > 100 µM (inactive)
GI50 (CAKI-1): > 100 µM (inactive)
GI50 (TK-10): > 100 µM (inactive)
GI50 (UO-31): > 100 µM (inactive)
GI50 (SF-295): > 100 µM (inactive)
GI50 (HOP-92): > 100 µM (inactive)
GI50 (OVCAR-5): > 100 µM (inactive)

COc1cc2c[n+](C)c3c4cc(OC)c(OC)cc4c(OC)cc3c2cc1OC
GI50 (K562): 4.03 µM (inactive)
GI50 (NCI/ADR-RES): > 100 µM (inactive)
GI50 (DU-145): 8.45 µM (inactive)
GI50 (HOP-62): 16.4 µM (inactive)
GI50 (A498): > 100 µM (inactive)
GI50 (RPMI-8226): 16.4 µM (inactive)
GI50 (OVCAR-4): 8.02 µM (inactive)
GI50 (HCT-15): > 100 µM
GI50 (MCF7): 2.17 µM (inactive)
GI50 (MDA-MB-231): 0.53 µM (active)
GI50 (MDA-MB-435): 11.2 µM (inactive)
GI50 (BT-549): 3.92 µM (inactive)
GI50 (CAKI-1): > 100 µM (inactive)
GI50 (TK-10): > 100 µM (inactive)
GI50 (UO-31): > 100 µM (inactive)
GI50 (SF-295): 20 µM (inactive)
GI50 (HCC 2998): 6.01 µM (inactive)
GI50 (OVCAR-5): > 100 µM (inactive)

NNC(=O)CC(=O)Nc1ccc(C(=O)O)cc1
GI50 (K562): > 100 µM (inactive)
GI50 (NCI/ADR-RES): > 100 µM (inactive)
GI50 (DU-145): > 100 µM (inactive)
GI50 (HOP-62): > 100 µM (inactive)
GI50 (RPMI-8226): > 100 µM (inactive)
GI50 (OVCAR-4): > 100 µM (inactive)
GI50 (HCT-15): > 100 µM
GI50 (MCF7): > 100 µM (inactive)
GI50 (MDA-MB-231): > 100 µM (inactive)
GI50 (MDA-MB-435): > 100 µM (inactive)
GI50 (BT-549): > 100 µM (inactive)
GI50 (CAKI-1): > 100 µM (inactive)
GI50 (TK-10): > 100 µM (inactive)
GI50 (UO-31): > 100 µM (inactive)
GI50 (SF-295): > 100 µM (inactive)
GI50 (HOP-92): > 100 µM (inactive)
GI50 (OVCAR-5): > 100 µM (inactive)
